The numbers were not newly measured in US5696156A, “Triterpene derivatives with immunosuppressant activity” (Merck & Co. Inc., priority 1996, dated 1997), which cites them from elsewhere.

As usually defined, the pIC50 is the IC50 on a negative log10 scale, so that one unit is a factor of ten.

The subject of the data set is Kv 1.3 channels. The settings on record: stated for the reference blocker that defines the efflux window.

pIC50: −log10 of the molar value.

On to “margatoxin (TIINVKCTSPKQCLPPCKAQFGQSAGAKCMNGKCKCYPH; UniProt P40755 1-39, looked up)”, for which the pIC50 is 10.00.
